The text below walks through data of patent US9475817B2 (BRISTOL-MYERS SQUIBB COMPANY, priority 2012, dated 2016).

The target in one assay is CK1δ (Homo sapiens (Human), UniProt P48730). Description: CK1δ kinase assay (Caliper LabChip, fluoresceinated peptide substrate). The format is biochemical. Conditions: 200 pM CK1δ, 50 μM ATP, 1.5 μM peptide substrate, 22 hours room temperature. The protocol:
(§1) CK1ε and CK1δ Kinase Assays
(§2) The kinase assay was performed in V-bottom 384-well plates. […] The reaction was incubated at room temperature for 22 hours and terminated by adding 45 μl of 35 mM EDTA to each sample. […] Compounds were dissolved at 10 mM in dimethylsulfoxide (DMSO) and evaluated at eleven concentrations. IC50 values were derived by non-linear regression analysis.

Another assay deals with CK1ε (Homo sapiens (Human), UniProt P49674). Description: CK1ε kinase assay (Caliper LabChip, fluoresceinated peptide substrate). The format is biochemical. Particulars: 200 pM CK1ε, 50 μM ATP, 1.5 μM peptide substrate, 22 hours room temperature. The protocol:
as §1, §2

Sequence of CK1ε (P49674 whole entry): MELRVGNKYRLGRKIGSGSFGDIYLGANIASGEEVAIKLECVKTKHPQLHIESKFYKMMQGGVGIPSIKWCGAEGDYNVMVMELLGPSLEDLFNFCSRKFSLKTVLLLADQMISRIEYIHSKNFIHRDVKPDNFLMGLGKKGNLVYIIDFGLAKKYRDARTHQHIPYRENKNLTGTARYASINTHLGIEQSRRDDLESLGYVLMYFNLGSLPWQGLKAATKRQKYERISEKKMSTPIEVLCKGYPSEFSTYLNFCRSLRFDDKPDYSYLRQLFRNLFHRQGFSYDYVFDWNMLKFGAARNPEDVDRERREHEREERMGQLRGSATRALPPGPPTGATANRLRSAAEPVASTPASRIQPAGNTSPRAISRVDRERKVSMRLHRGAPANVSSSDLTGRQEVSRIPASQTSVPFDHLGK
Sequence of CK1δ (P48730 whole entry): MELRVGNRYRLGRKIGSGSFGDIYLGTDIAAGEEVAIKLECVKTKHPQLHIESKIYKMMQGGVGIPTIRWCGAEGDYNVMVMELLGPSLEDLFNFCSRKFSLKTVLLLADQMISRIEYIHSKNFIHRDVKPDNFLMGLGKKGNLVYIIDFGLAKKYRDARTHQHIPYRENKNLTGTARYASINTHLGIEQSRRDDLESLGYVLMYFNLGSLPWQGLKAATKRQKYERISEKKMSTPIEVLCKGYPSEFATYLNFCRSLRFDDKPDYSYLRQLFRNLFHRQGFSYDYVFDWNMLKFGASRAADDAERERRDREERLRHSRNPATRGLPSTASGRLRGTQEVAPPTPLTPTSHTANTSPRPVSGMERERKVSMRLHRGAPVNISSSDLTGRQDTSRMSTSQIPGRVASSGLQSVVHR

In general, IC50 refers to the concentration needed to halve the response being measured. Read a low IC50 as greater potency. Regarding `Cn1nc(-c2ccc(F)cc2)c(-c2ccc3nc(NC(=O)c4ccnc(N)c4)cn3n2)c1N1CCNCC1` [Compound 140, 2-Amino-N-(6-(3-(4-fluorophenyl)-1-methyl-5-(piperazin-1-yl)-1H-pyrazol-4-yl)imidazo[1,2-b]pyridazin-2-yl)isonicotinamide], the IC50 against CK1δ amounted to 2.5 nM; at CK1ε, 2.4 nM.
In the case of `Cc1nc(-c2ccncc2)sc1C(=O)Nc1cn2nc(-c3c(-c4ccc(F)cc4)nn(C)c3C3CCN(Cc4ccon4)CC3)ccc2n1` [Compound 182, N-(6-(3-(4-fluorophenyl)-5-(1-(isoxazol-3-ylmethyl)piperidin-4-yl)-1-methyl-1H-pyrazol-4-yl)imidazo [1,2-b]pyridazin-2-yl)-4-methyl-2-(pyridin-4-yl)thiazole-5-carboxamide], the results for the IC50 on CK1δ and against CK1ε were 1.7 nM and 0.9 nM, respectively.
The like results for `COc1cccc(C(=O)Nc2cn3nc(-c4cn(C)nc4-c4ccc(F)cc4)ccc3n2)c1F` [Compound 59, 2-fluoro-N-(6-(3-(4-fluorophenyl)-1-methyl-1H-pyrazol-4-yl)imidazo[1,2-b]pyridazin-2-yl)-3-methoxybenzamide] were, in that order, 7.8 nM and 22.1 nM.
As for `Cn1nc(-c2ccc(F)cc2)c(-c2ccc3nc(NC(=O)c4ccnc(N)c4)cn3n2)c1N1CCN(CCC(F)(F)F)CC1` [Compound 141, 2-Amino-N-(6-(3-(4-fluorophenyl)-1-methyl-5-(4-(3,3,3-trifluoropropyl)piperazin-1-yl)-1H-pyrazol-4-yl)imidazo[1,2-b]pyridazin-2-yl)isonicotinamide], the IC50 turned out to be 2.5 nM against CK1δ and 32 nM against CK1ε.
On to `Cn1cc(-c2ccc3nc(NC(=O)C4CC4)cn3n2)c(-c2ccc(F)cc2)n1` [Compound 85, N-(6-(3-(4-fluorophenyl)-1-methyl-1H-pyrazol-4-yl)imidazo[1,2-b]pyridazin-2-yl)cyclopropanecarboxamide], for which the half-maximal inhibitory concentration (IC50) stood at 7 nM on CK1δ and 50.1 nM against CK1ε.
`Cn1cc(-c2ccc3nc(NC(=O)OCc4ccccc4)cn3n2)c(-c2ccc(F)cc2)n1` [Compound 187, Benzyl 6-(3-(4-fluorophenyl)-1-methyl-1H-pyrazol-4-yl)imidazo[1,2-b]pyridazin-2-ylcarbamate]: the IC50 at CK1δ was 51.5 nM; at CK1ε it was greater than 2000 nM.
The like results for `COc1c(F)cc(C(=O)Nc2cn3nc(-c4cn(C)nc4-c4ccc(F)cc4)ccc3n2)cc1F` [Compound 61, 3,5-difluoro-N-(6-(3-(4-fluorophenyl)-1-methyl-1H-pyrazol-4-yl)imidazo[1,2-b]pyridazin-2-yl)-4-methoxybenzamide] were, in that order, 5.7 nM and 18.7 nM.
As to `Cn1cc(-c2ccc3nc(NC(=O)c4ccnc(F)c4)cn3n2)c(-c2ccc(F)cc2)n1` [Compound 54, 2-fluoro-N-(6-(3-(4-fluorophenyl)-1-methyl-1H-pyrazol-4-yl)imidazo[1,2-b]pyridazin-2-yl)isonicotinamide], the figures for the IC50 against CK1δ and on CK1ε were 4.5 nM and 14 nM, respectively.
As to `Cc1nc(-c2ccncc2)sc1C(=O)Nc1cn2nc(-c3c(-c4ccc(F)cc4)nn(C)c3N3CCOCC3)ccc2n1` [Compound 147, N-(6-(3-(4-fluorophenyl)-1-methyl-5-morpholino-1H-pyrazol-4-yl)imidazo [1,2-b]pyridazin-2-yl)-4-methyl-2-(pyridin-4-yl)thiazole-5-carboxamide], the IC50 at CK1δ is 0.7 nM; at CK1ε it was 7.9 nM.
The like results for `Cn1cc(-c2ccc3nc(NC(=O)c4cncc(O)c4)cn3n2)c(-c2ccc(F)cc2)n1` [Compound 70, N-(6-(3-(4-fluorophenyl)-1-methyl-1H-pyrazol-4-yl)imidazo[1,2-b]pyridazin-2-yl)-5-hydroxynicotinamide] were, in that order, 2 nM and 4.7 nM.
In the case of `COc1cccc(C(=O)Nc2cn3nc(-c4cn(C)nc4-c4ccc(F)cc4)ccc3n2)n1` [Compound 67, N-(6-(3-(4-fluorophenyl)-1-methyl-1H-pyrazol-4-yl)imidazo[1,2-b]pyridazin-2-yl)-6-methoxypicolinamide], the IC50 on CK1δ worked out at 14.2 nM; on CK1ε it was 13.3 nM.
In the case of `Cc1nc(-c2cccnc2)sc1C(=O)Nc1cn2nc(-c3c(-c4ccc(F)cc4)nn(C)c3C3CCN(CC(N)=O)CC3)ccc2n1` [Compound 178, N-(6-(5-(1-(2-Amino-2-oxoethyl)piperidin-4-yl)-3-(4-fluorophenyl)-1-methyl-1H-pyrazol-4-yl)imidazo[1,2-b]pyridazin-2-yl)-4-methyl-2-(pyridin-3-yl)thiazole-5-carboxamide], the IC50 was 0.2 nM at CK1δ and 1.3 nM on CK1ε.
For the molecule `Cn1nc(-c2ccc(F)cc2)c(-c2ccc3nc(NC(=O)c4ccncc4)cn3n2)c1N1CCN(CCC(F)(F)F)CC1` [Compound 130, N-(6-(3-(4-Fluorophenyl)-1-methyl-5-(4-(3,3,3-trifluoropropyl)piperazin-1-yl)-1H-pyrazol-4-yl)imidazo[1,2-b]pyridazin-2-yl)isonicotinamide], the IC50 against CK1δ came out at 1.4 nM; against CK1ε, 23.5 nM.
The like results for `Cn1nc(-c2ccc(F)cc2)c(-c2ccc3nc(NC(=O)c4ccncc4)cn3n2)c1N1CCN(C(=O)c2ccon2)CC1` [Compound 133, N-(6-(3-(4-Fluorophenyl)-5-(4-(isoxazole-3-carbonyl)piperazin-1-yl)-1-methyl-1H-pyrazol-4-yl)imidazo[1,2-b]pyridazin-2-yl)isonicotinamide] were, in that order, 1 nM and 8.1 nM.
On to `Cn1nc(-c2ccc(F)cc2)c(-c2ccc3nc(NC(=O)c4ccnc(F)c4)cn3n2)c1N1CCN(C[C@@H](O)C(F)(F)F)CC1` [Compound 127, (R)-2-Fluoro-N-(6-(3-(4-fluorophenyl)-1-methyl-5-(4-(3,3,3-trifluoro-2-hydroxypropyl)piperazin-1-yl)-1H-pyrazol-4-yl)imidazo[1,2-b]pyridazin-2-yl)isonicotinamide], for which the IC50 on CK1δ worked out at 1 nM; on CK1ε, 6.2 nM.
For `Cn1nc(-c2ccc(F)cc2)c(-c2ccc3nc(NC(=O)c4ccnc(F)c4)cn3n2)c1C1CCN(C(=O)CC(F)(F)F)CC1` [Compound 151, 2-Fluoro-N-(6-(3-(4-fluorophenyl)-1-methyl-5-(1-(3,3,3-trifluoropropanoyl)piperidin-4-yl)-1H-pyrazol-4-yl)imidazo[1,2-b]pyridazin-2-yl)isonicotinamide], the IC50 at CK1δ was found to be 0.5 nM; against CK1ε it was 5.7 nM.
The like results for `Cn1cc(-c2ccc3nc(NC(=O)c4cc(C#N)ccc4F)cn3n2)c(-c2ccc(F)cc2)n1` [Compound 55, 5-cyano-2-fluoro-N-(6-(3-(4-fluorophenyl)-1-methyl-1H-pyrazol-4-yl)imidazo[1,2-b]pyridazin-2-yl)benzamide] were, in that order, 4.1 nM and 12.1 nM.
`Cc1nc(-c2cccnc2)sc1C(=O)Nc1cn2nc(-c3c(-c4ccc(F)cc4)nn(C)c3C3CCN(Cc4ccon4)CC3)ccc2n1` [Compound 176, N-(6-(3-(4-fluorophenyl)-5-(1-(isoxazol-3-ylmethyl)piperidin-4-yl)-1-methyl-1H-pyrazol-4-yl)imidazo[1,2-b]pyridazin-2-yl)-4-methyl-2-(pyridin-3-yl)thiazole-5-carboxamide]: the IC50 at CK1δ was 1 nM; at CK1ε, 0.4 nM.
